For series [1] the following is noted: absorbed by the gastrointestinal tract, significant first-pass metabolism in the liver; cited from earlier work.
In the next series the test system is osteoarthritis symptoms. The settings on record: cited from earlier work.
The subject of the next series is weakness of hind legs. As to the kind of experiment: Case report: 12 year old Weimaraner with weakness of hind legs (Example 3). Type of series: in vivo, dog (Weimaraner). The settings on record: prednisone 20 mg per day. The procedure:
A 12 year old Weimaraner developed weakness of his hind legs which limited his ability to jump and lift his leg to urinate. […] He was then started on the new composition, of the invention, comprising zinc acetate 20 mg and glucosamine sulfate 500 mg coated with polyvinylpirrolidone 7 mg taken twice a day. […] He was then maintained on glucosamine sulfate 500 mg and zinc acetate 10 mg, twice a day for 11 months until his death.

The conditions of series [2]: most common adverse effect of zinc therapy; cited from earlier work.

The structures appear in SMILES notation.

For the compound `N[C@H]1C(O)O[C@H](CO)[C@@H](O)[C@@H]1O` (some centres unmarked) [Glucosamine], the bioavailibility in series [1] is on record as 26%. For the compound `N[C@H]1C(O)O[C@H](CO)[C@@H](O)[C@@H]1O.O=S(=O)(O)O` (some centres unmarked) [glucosamine sulfate], in the series on osteoarthritis symptoms (after discontinuation), the “persistence of clinical improvement after discontinuation” value is recorded as “up to four weeks”. In addition, the “onset of clinical improvement of symptoms” value with osteoarthritis symptoms (after oral administration) is “as early as one week”. Take `C[C@]12C=CC(=O)C=C1CC[C@@H]1[C@@H]2C(=O)C[C@@]2(C)[C@H]1CC[C@]2(O)C(=O)CO` [prednisone]: in the series on weakness of hind legs, the “response of hind leg weakness” value is listed as “limited success”. `[Zn]` [zinc]: the “gastrointestinal irritation, share of patients” value in series [2] is recorded as “approximately 10 % of patients”.

These data come from patent US6656925B2, “Composition and method of treating arthritis” (Advanced Medical Instruments, priority 1998, dated 2003).
